Patent US20170273922A1, “UREA AND BIS-UREA BASED COMPOUNDS AND ANALOGUES THEREOF USEFUL IN THE TREATMENT OF ANDROGEN RECEPTOR MEDIATED DISEASES OR DISORDERS” (THE ROYAL INSTITUTION FOR THE ADVACEMENT OF LEARNING/MCGILL …, priority 2014, published 2017)
Entries after “also recorded” stand apart in the source; their conditions may differ. Blank lines part the entries; values can stand above or below the molecule they belong to.

Legend:
[1] = test system: LNCaP cells; experiment: MTT assay (cytotoxicity), LNCaP cells; assay type: cell-based
In short: (§1)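 Viable cell number was determined by MTT after cells in RPMI 1640 plus 10% FBS had been treated for 72 h with compounds at set concentrations, DMSO serving as vehicle control.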

[2] = test system: 22Rv1 cells; experiment: MTT assay (cytotoxicity), 22Rv1 cells; assay type: cell-based
In short: as §1

[3] = test system: DU145 cells; experiment: MTT assay (cytotoxicity), DU145 cells; assay type: cell-based; details: 72 h, Table 2.2
In short: as §1

[4] = test system: H1975 cells; experiment: MTT assay (cytotoxicity), H1975 cells; assay type: cell-based; details: 72 h treatment, Table 6.1
Protocol: (§2) MTT assays: LNCaP, 22Rv1, Du145, H1975, A549, MB231 and MCF-7 cells are maintained in RPMI 1640 supplemented with 10% FBS. Cells were seeded at a density of 6-7×10^3 cells per well in 96-well plates. After overnight incubation, cells in fresh RPMI 1640 supplemented with 10% FBS were exposed to DMSO vehicle control or test compounds at designated concentrations for 72 h. Viable cells were evaluated by MTT assays. Experiments were performed in triplicate and repeated at least twice.

[5] = test system: A549 cells; experiment: MTT assay (cytotoxicity), A549 cells; assay type: cell-based; details: 72 h treatment, Table 6.1
Protocol: as §2

[6] = test system: MB231 cells; experiment: MTT assay (cytotoxicity), MB231 cells; assay type: cell-based; details: 72 h treatment, Table 6.1
Protocol: as §2

[7] = test system: MCF-7 cells; experiment: MTT assay (cytotoxicity), MCF-7 cells; assay type: cell-based; details: 72 h treatment, Table 6.1
Protocol: as §2

[8] = test system: liver hepatocellular carcinoma; experiment: MTT assay (72 h), liver hepatocellular carcinoma cell line of Table 6.1; assay type: cell-based; details: HepG2 cells, 72 h treatment, read-out: Cytotoxicity (IC50, μM) HepG2
[9] = molecular target: T1, IRF3DBD-AR(1-547) (Homo sapiens, UniProt P10275); experiment: IRF3DBD-AR(1-547) ISRE-luc reporter assay; assay type: cell-based; details: PC3 cells, 24 h
T1 construct: IRF3-AR(1-547) is the fusion of IRF3 DBD with the AR NTD (1-547); expressed in transfected cells
T1 sequence (P10275 1-547): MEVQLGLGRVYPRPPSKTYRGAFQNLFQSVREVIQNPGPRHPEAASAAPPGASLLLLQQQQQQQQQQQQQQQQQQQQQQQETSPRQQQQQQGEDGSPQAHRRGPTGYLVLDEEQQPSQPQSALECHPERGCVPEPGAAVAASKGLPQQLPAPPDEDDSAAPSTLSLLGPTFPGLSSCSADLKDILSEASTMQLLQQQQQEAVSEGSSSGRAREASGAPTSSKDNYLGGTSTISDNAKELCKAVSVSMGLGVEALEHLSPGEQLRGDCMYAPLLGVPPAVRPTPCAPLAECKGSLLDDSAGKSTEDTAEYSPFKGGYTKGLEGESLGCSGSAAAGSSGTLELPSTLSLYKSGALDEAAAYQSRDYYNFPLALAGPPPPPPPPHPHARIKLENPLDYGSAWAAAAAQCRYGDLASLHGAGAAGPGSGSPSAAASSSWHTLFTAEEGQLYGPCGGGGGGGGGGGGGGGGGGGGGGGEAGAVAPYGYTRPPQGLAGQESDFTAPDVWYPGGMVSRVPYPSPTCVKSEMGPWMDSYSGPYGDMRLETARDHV

[10] = molecular target: T2, full-length IRF3 (Homo sapiens, UniProt Q14653); experiment: Full-length IRF3 ISRE-luc reporter assay; assay type: cell-based; details: PC3 cells, 24 h
T2 construct: co-transfected with full-length IRF3 or IRF3DBD-AR(1-547) expressing plasmids; expressed in transfected cells
T2 sequence (Q14653 1-427): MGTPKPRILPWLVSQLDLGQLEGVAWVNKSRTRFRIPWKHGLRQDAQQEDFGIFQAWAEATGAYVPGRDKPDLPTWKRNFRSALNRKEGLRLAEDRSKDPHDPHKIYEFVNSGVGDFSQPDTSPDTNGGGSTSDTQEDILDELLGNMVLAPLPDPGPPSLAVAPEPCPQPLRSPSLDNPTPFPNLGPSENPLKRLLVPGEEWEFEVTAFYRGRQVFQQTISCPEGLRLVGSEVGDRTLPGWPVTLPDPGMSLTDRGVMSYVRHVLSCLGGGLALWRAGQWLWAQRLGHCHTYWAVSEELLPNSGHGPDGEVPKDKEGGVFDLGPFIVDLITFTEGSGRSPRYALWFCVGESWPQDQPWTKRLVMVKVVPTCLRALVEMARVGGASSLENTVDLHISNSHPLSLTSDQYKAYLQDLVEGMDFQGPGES
Excerpt: For all of the others, cells were co-transfected with full-length IRF3 or IRF3DBD-AR(1-547) expressing plasmids and with the ISRE-luc reporter and pRL-TK plasmids. […] As IRF3DBD-AR(1-547) contains the DBD of IRF3, ISRE-luc reporter instead of the PSA-luc reporter was used in our assays.
HEK293 cells were co-transfected with IRF3DBD(1-133) or IRF3DBD-AR(1-547) or IRF3DBD-AR(181-547) or full-length IRF3 expressing plasmids and with the ISRE-luc reporter and the Renilla luciferase pRL-TK plasmids.
Here, IRF3-AR(1-547) is the fusion of IRF3 DBD with the AR NTD (1-547). […] The plasmids expressing IRF3-AR(1-547) (A) or wild-type IRF3 (B) or IRF3 DBD (for NT) as well as ISRE-luc and pRL-TK were transiently transfected into PC3 cells. […] Bic, bicalutamide; EPI, EPI-001.

[11] = test system: VP16-AR(507-919); experiment: VP16-AR(507-919) (NTD-deleted) PSA-luc reporter assay; details: 10 nM DHT, 24 h; PC3 or HEK293 cells
[12] = MTT assay (cytotoxicity), LNCaP cells; assay type: cell-based; details: human, LNCaP cells, 72 h, Table 2.4
In short: as §1

[13] = MTT assay (cytotoxicity), 22Rv1 cells; assay type: cell-based; details: human, 22Rv1 cells, 72 h, Table 2.4
In short: as §1

[14] = MTT assay (cytotoxicity), DU145 cells; assay type: cell-based; details: human, DU145 cells, Table 2.4
In short: as §1

[15] = MTT assay (cytotoxicity), H1975 cells; assay type: cell-based; details: human, 72 h treatment, Table 6.1
Protocol: as §2

[16] = MTT assay (cytotoxicity), A549 cells; assay type: cell-based; details: human, 72 h treatment, Table 6.1
Protocol: as §2

[17] = MTT assay (cytotoxicity), MB231 cells; assay type: cell-based; details: human, 72 h treatment, Table 6.1
Protocol: as §2

[18] = MTT assay (cytotoxicity), MCF-7 cells; assay type: cell-based; details: human, 72 h treatment, Table 6.1
Protocol: as §2

[19] = MTT assay (72 h), liver hepatocellular carcinoma cell line of Table 6.1; assay type: cell-based; details: human, HepG2 cells (liver hepatocellular carcinoma), 72 h treatment, read-out: Cytotoxicity (IC50, μM) HepG2
[20] = molecular target: T3, AR^v567es (Homo sapiens, UniProt P10275); details: 25 μM; COS-1 cells; cited from earlier work
T3 construct: host or cells: COS-1

[21] = molecular target: T4, AR-v7 (Homo sapiens, UniProt P10275); experiment: AR-v7-dependent PSA-luc reporter assay in HEK293 cells; details: 25 μM
T4 sequence (P10275 1-644 isoform P10275-3): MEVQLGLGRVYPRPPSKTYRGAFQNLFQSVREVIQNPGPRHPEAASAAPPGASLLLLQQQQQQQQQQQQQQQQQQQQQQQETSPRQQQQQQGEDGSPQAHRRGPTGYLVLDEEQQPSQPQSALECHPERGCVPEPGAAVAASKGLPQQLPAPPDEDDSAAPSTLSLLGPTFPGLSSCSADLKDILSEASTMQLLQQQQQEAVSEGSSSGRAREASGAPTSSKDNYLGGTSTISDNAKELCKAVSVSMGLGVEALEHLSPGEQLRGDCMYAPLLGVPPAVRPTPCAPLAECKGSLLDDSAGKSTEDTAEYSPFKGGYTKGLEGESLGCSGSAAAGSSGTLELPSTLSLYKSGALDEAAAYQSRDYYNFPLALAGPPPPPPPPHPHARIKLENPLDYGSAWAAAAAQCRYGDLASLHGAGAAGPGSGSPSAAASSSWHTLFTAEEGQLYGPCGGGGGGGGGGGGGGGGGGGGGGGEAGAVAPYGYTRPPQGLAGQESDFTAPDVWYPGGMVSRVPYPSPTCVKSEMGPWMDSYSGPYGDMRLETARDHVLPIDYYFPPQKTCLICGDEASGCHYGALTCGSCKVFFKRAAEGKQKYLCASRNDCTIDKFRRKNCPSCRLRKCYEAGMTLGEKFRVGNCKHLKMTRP
Protocol: Cells were exposed to vehicle control or compounds at designated concentrations (μM) for 48 h.

[22] = molecular target: T5, AR-v7 in LNCaP cells (Homo sapiens, UniProt P10275); experiment: PSA-luc reporter assay in LNCaP cells transiently transfected with pIRES-AR-v7; details: 24 h
T5 sequence (P10275 1-644 isoform P10275-3): T4 sequence (P10275 1-644 isoform P10275-3)
Protocol: NT, LNCaP cells were transiently transfected with pIRES vector, PSA-luc and pRL-TK. […] Cells were then transiently transfected with PSA-Luc and pRL-TK and exposed to DMSO or compounds for 24 h, in triplicate.

[23] = test system: endogenous AR-Vs in 22Rv1 cells; experiment: PSA-luc reporter assay in androgen-starved 22Rv1 cells (endogenous LBD-truncated AR variants); details: androgen-starved 3 days, 24 h exposure
Protocol: NT, LNCaP cells were transiently transfected with pIRES vector, PSA-luc and pRL-TK. […] Cells were then transiently transfected with PSA-Luc and pRL-TK and exposed to DMSO or compounds for 24 h, in triplicate. NT, not transfected with PSA-luc.
The ARs were probed by N-terminal directed AR antibody (N20, Santa Cruz); B) The 22Rv1 cells were androgen-starved (in phenol red-free medium+10% CS-FBS) for 3 days to ensure the full-length AR expressed in 22Rv1 are not activated. The 22Rv1 cells were subsequently co-transfected with PSA-luc and pRL-TK plasmids. […] Cells in phenol red-free medium+10% CS-FBS were exposed to DMSO or compounds for 24 h and harvested for Western blot analysis.
The cells were androgen-starved for 3 days and transfected with PSA-Luc and pRL-TK plasmids. NT, cells were transfected with empty vector. Cells were exposed to vehicle control or compounds for 24 h.

[24] = LNCaP cells, 72 h treatment, Table 6.1
[25] = 22Rv1 cells, 72 h treatment, Table 6.1

T3 sequence (P10275 with tags, fused parts or gaps limits assumed): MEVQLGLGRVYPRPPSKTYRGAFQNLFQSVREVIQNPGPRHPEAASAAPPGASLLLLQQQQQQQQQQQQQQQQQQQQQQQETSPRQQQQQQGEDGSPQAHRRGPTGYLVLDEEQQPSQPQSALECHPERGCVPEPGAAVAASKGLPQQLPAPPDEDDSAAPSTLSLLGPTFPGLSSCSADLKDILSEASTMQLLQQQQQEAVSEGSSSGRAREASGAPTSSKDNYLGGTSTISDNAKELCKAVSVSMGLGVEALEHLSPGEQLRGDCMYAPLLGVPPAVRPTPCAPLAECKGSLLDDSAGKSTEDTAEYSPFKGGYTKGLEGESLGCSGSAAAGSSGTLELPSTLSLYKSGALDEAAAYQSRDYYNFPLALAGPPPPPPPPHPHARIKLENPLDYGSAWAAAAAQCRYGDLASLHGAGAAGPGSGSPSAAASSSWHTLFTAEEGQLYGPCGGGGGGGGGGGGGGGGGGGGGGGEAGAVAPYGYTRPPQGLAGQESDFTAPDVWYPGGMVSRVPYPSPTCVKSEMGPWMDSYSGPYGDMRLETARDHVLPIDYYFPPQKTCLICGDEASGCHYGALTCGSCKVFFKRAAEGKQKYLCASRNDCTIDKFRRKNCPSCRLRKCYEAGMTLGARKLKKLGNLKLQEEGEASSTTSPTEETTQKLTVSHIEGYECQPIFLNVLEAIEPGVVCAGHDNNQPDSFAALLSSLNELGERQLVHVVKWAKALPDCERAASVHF

Compound: N#Cc1ccc(NC(=O)N/C=C/c2cccc(C(F)(F)F)c2)cc1C(F)(F)F [Compound 410]
IC50 ([1]; 72 h, Table 2.2): 4.4 µM | IC50 [1, 24]: 1.8 µM | IC50 [2, 25]: 2.5 µM | IC50 [3]: 10.4 µM | IC50 [4]: 2.5 µM | IC50 [5]: 2.7 µM | IC50 [6]: 4 µM | IC50 [7]: 2.6 µM | IC50 [8]: 0.92 µM | inhibition of IRF3-AR(1-547)-dependent ISRE-luc reporter activity [9]: potently inhibit | activity against wild-type IRF3 (ISRE-luc) [10]: inactive | inhibition of DHT-induced activation of VP16-AR(507-919) (PSA-luc) [11]: inactive

Compound: N#Cc1ccc(NC(=O)N/C=C/c2cccs2)cc1C(F)(F)F [Compound 428]
IC50 at 72 h [12]: 2.1 µM | IC50 at 72 h [13]: 3.7 µM | IC50 at 72 h [14]: 5.1 µM | IC50 at 72 h [15]: 7.7 µM | IC50 at 72 h [16]: 4.7 µM | IC50 at 72 h [17]: 7.6 µM | IC50 at 72 h [18]: 5.2 µM | IC50 at 72 h [19]: 2.4 µM | inhibition of IRF3-AR(1-547)-dependent ISRE-luc reporter activity [9]: potently inhibit | activity against wild-type IRF3 (ISRE-luc) [10]: inactive | inhibition of DHT-induced activation of VP16-AR(507-919) (PSA-luc) [11]: inactive

Compound: O=C(N/C=C/c1cccc(C(F)(F)F)c1)Nc1cnccn1 [Compound 558]
IC50 ([1]; 72 h, Table 2.1): 0.06 µM | IC50 [1, 24]: 0.06 µM | IC50 [2, 25]: 0.1 µM | IC50 ([2]; 72 h, Table 2.1): 0.1 µM | IC50 [4]: 2.4 µM | IC50 [5]: 0.09 µM | IC50 [6]: 0.3 µM | IC50 [7]: < 0.5 µM | IC50 [8]: 0.14 µM

inhibition of constitutive activation of AR-v7 (PSA-luc) [21]: inhibit; also recorded: active | activity in LNCaP cells with forced expression of AR-v7 (PSA-luc) [22]: remain active
Compound: CC(C)(c1ccc(OCC(O)CO)cc1)c1ccc(OCC(O)CCl)cc1 (stereo not drawn) [EPI-001, reference compound]
suppression of constitutive activation of AR^v567es in PSA-Luc reporter assay [20]: half | activity against constitutive activation of endogenous AR-Vs in 22Rv1 cells (PSA-luc) [23]: active
